In patent US8987285B2, “Pharmaceutical compositions, dosage forms and new forms of the compound of formula (I), and methods of use thereof” (Portola Pharmaceuticals, Inc., priority 2010, dated 2015):

Key:
[1] = cited from earlier work
[2] = Surface tension by Kibron Delta-8 tensiometer (microtensiometry); conditions: for Surface Active: 24.1 ° C.

SMILES	LogP [1]	pKa(s) A = acid [1]	pKa(s) B = Base [1]	further results
NS(=O)(=O)c1cc2c(cc1C(F)(F)F)NC(Cc1ccccc1)NS2(=O)=O (stereo not drawn) [Bendroflumethiazide]	1.95			
COc1ccc([C@@H]2Sc3ccccc3N(CCN(C)C)C(=O)[C@@H]2OC(C)=O)cc1 [Diltiazem]	2.89			
Oc1cccc2ccccc12 [Form 1-naphthol, 1-naphthol]		A 9.175		
NC12CC3CC(CC(C3)C1)C2 [Amantadine]	2.41		B 10.48	
CC(=O)Nc1ccc(O)cc1 [Paracetamol]		A 9.52		
NS(=O)(=O)c1cc2c(cc1Cl)N=C(CSCc1ccccc1)NS2(=O)=O [Benzthiazide]	1.73			
Nc1nc2ncc(CNc3ccc(C(=O)N[C@@H](CCC(=O)O)C(=O)O)cc3)nc2c(=O)[nH]1 [Folic Acid]	0.2		2.33	
C=CCc1ccccc1OCC(O)CNC(C)C (stereo not drawn) [Alprenolol]			B 9.477	
O=C(O)c1ccc2ccccc2c1 [2-naphthoic acid]	3.28	A 3.884		
CN(C)CC/C=C1/c2ccccc2Sc2ccc(Cl)cc21 [Chlorprothixene]	5.48		B 9.52	
O=C(O)c1cccnc1Nc1cccc(C(F)(F)F)c1 [Niflumic Acid]	3.88		2.26	
O=C(O)c1ccccc1Nc1cccc(C(F)(F)F)c1 [Flufenamic Acid]	5.56	A 3.968		
CNCCCC12CCC(c3ccccc31)c1ccccc12 [Maprotiline]	4.85		B 10.33	
CN(C)CCC=C1c2ccccc2CCc2ccccc21 [Amitriptyline]			B 9.3	
CNCCC=C1c2ccccc2CCc2ccccc21 [Nortriptyline]			B 10.21	
CCN(CC)Cc1cc(Nc2ccnc3cc(Cl)ccc23)ccc1O [Amodiaquin]	4.2	A 11.49		
CC(C(=O)O)c1ccc2c(c1)[nH]c1ccc(Cl)cc12 (stereo not drawn) [Carprofen]	4.29	A 4.247		
O=C(CCCN1CCC(O)(c2ccc(Cl)cc2)CC1)c1ccc(F)cc1 [Haloperidol]			B 8.42	
Nc1ccc(S(=O)(=O)Nc2nccs2)cc1 [Sulfathiazole]	0.07	7.168	B 2.124 A	
CC(C(=O)O)c1ccc(-c2ccccc2)c(F)c1 (stereo not drawn) [Flurbiprofen]		A 4.01		

SMILES	LogP [1]	pKa(s) A = acid [1]	pKa(s) B = Base [1]	further results
CCn1cc(C(=O)O)c(=O)c2cc(F)c(N3CCNCC3)cc21 [Norfloxacin]	−1.03	A 6.324 B	8.575	
CC(C)(C)c1ccc(C(O)CCCN2CCC(C(O)(c3ccccc3)c3ccccc3)CC2)cc1 (stereo not drawn) [Terfenadine]	5.42		B 9.25	
CNc1cc2[nH]c(=O)n(-c3ccc(NC(=O)[N-]S(=O)(=O)c4ccc(Cl)s4)cc3)c(=O)c2cc1F.[K+] [potassium salt of formula (I)]				CMC ([2]; pH 6.0 phosphate buffer): 0.1 mg/mL; Surface tension at CMC ([2]; pH 6.0 phosphate buffer): 62 mN/m; maximum surface pressure change ([2]; pH6 phosphate buffer): 11 mN/m; CMC ([2]; pH 6.5 phosphate buffer): >1.7 mg/mL; Surface tension at CMC ([2]; pH 6.5 phosphate buffer): 68 mN/m; Surface Active ([2]; pH 6.5 phosphate buffer): Yes; CMC ([2]; pH 7.0 phosphate buffer): >2.7 mg/mL; Surface tension at CMC ([2]; pH 7.0 phosphate buffer): 65 mN/m; Surface Active ([2]; pH 7.0 phosphate buffer): Yes; CMC ([2]; pH 7.5 phosphate buffer): >4.0 mg/mL; Surface tension at CMC ([2]; pH 7.5 phosphate buffer): 63 mN/m; Surface Active ([2]; pH 7.5 phosphate buffer): Yes; CMC ([2]; pH 8.0 phosphate buffer): >3.5 mg/mL; Surface tension at CMC ([2]; pH 8.0 phosphate buffer): 63 mN/m; Surface Active ([2]; pH 8.0 phosphate buffer): Yes
O=C(O)c1cc(/N=N/c2ccc(S(=O)(=O)Nc3ccccn3)cc2)ccc1O [Sulfasalazine]	3.61			
NS(=O)(=O)c1cc2c(cc1Cl)NC(C(Cl)Cl)NS2(=O)=O (stereo not drawn) [Trichlormethiazide]	0.97			
Cc1ccc(Cl)c(Nc2ccccc2C(=O)O)c1Cl [Meclofenamic Acid]	5.9	A 4.10		
CNCCCN1c2ccccc2CCc2ccccc21 [Desipramine]			B 10.08	
CN(C)CCCN1c2ccccc2CCc2ccccc21 [Imipramine]			B 9.54	
NC(N)=Nc1nc(CSCCC(N)=NS(N)(=O)=O)cs1 [Famotidine]	−0.81	11.01	6.77	
Clc1ccc(COC(Cn2ccnc2)c2ccc(Cl)cc2Cl)c(Cl)c1 (stereo not drawn) [Miconazole]			B 6.316	
CC1CCc2cc(F)cc3c(=O)c(C(=O)O)cn1c23 (stereo not drawn) [Flumequine]	1.72	A 6.37		
Cc1ccnc(NS(=O)(=O)c2ccc(N)cc2)n1 [Sulfamerazine]	0.15	6.81	2.22	
O=C1CN(/N=C/c2ccc([N+](=O)[O-])o2)C(=O)N1 [Nitrofurantoin]	−0.54	A 7.05		
Cc1ccccc1C(OCCN(C)C)c1ccccc1 (stereo not drawn) [Orphenadrine]	3.84		B 9.037	
CC(C)(C)NCC(O)COc1cccc2c1CC(O)C(O)C2 (stereo not drawn) [Nadolol]			B 9.696	
CCOC(=O)c1ccc(N)cc1 [Benzocaine]			B 2.39	
CCN(CC)CCNC(=O)c1cc(Cl)c(N)cc1OC [Metoclopramide]			B 9.24	
CNCCC(Oc1ccc(C(F)(F)F)cc1)c1ccccc1 (stereo not drawn) [Fluoxetine]			B 10.09	
Cc1cccc(Nc2ccccc2C(=O)O)c1C [Mefenamic Acid]		A 4.221		
